Data reported in patent US20190382432A1 (Synbias Pharma AG, priority 2013, published 2019).
Structures can show the parent of a compound that is named as a salt. Marks after values point to notes of the source that are not given here.

Legend:
Type in all cases: physicochemical
[1] = Thermostability on storage at 25, 40 and 100 °C per ICH Q1A (R2), HPLC; settings: 25, 40, 100 °C; data not shown
Protocol: HPLC and GC analyses were performed according to standard protocols.
The testing was performed as described in the ICH guidelines (cf. inter alia ICH Guideline Q1A (R2)).

[2] = Particle size distribution by laser diffraction analysis (Mastersizer 2000); settings: wet laser diffraction in acetone; listed as Sample 3, hydrochloride
Protocol: Laser diffraction analysis was performed in form of wet laser diffraction in acetone: 1750 rpm, 3×20 s cycle time, 60 s background time, without sonication, and 5 min stirring time using a Mastersizer 2000 Particle Size Analyzer (Malvern Instruments Ltd., Malvern, UK) according to the manufacturer's instructions.

[3] = Hygroscopic capacity: water content by Karl-Fischer titration after exposure to temperature and relative humidity; settings: 25 or 40 °C, 40-90% rh; data not shown
Protocol: Coulometric Karl-Fischer titration (KFT; for determining the water content) was performed with an external drying oven (Metrohm 707 KF; operated at 140° C. with N2 purge). The samples were precisely weighed on an analytical balance (10^−5 g).
The testing was performed as described in the ICH guidelines.

[4] = Thermostability under stress conditions (storage at 100 °C for one month), HPLC
Protocol: Sample S was prepared according to the present invention, as described in Example 3 above. Sample M1 was prepared according to Example 1 of WO 2012/163508 A1, as described in Example 7 above. Finally, Sample M2 was prepared according to Example 2 of WO 2012/163508 A1, as described in Example 7 above.
The samples were exposed to a temperature of 100° C. for the time period (in weeks) indicated. The testing was performed as described in the ICH Guideline Q1A (R2) (cf. above). The amount of the degradation product (i.e. doxorubicinone) produced as well as those of various impurities (i.e., doxorubicin and four different impurities of yet unknown identity; all given in % (w/w); “n.d.”=not determined) was determined by HPCL analysis (“LT”=less than).

COc1cccc2c1C(=O)c1c(O)c3c(c(O)c1C2=O)C[C@@](O)(C(=O)CO)C[C@@H]3O[C@H]1C[C@H](N)[C@H](O)[C@H](C)O1 [S, epirubicin hydrochloride]
Thermostability compared with the Example 1 monohydrate (TABLE 5-1), in words [1]: almost identical results | D(v/0.5), mean diameter based on the volume of the particles [2]: 25.25 μm | Hygroscopic capacity compared with the Example 1 monohydrate (TABLE 6-1), in words [3]: almost identical results | Doxorubicin (NMT 1%) ([4]; 0 weeks): 0.29 % (w/w) | Doxorubicinone (Aglycone) (NMT 1%) ([4]; 0 weeks): < 0.05 % (w/w) | Total Impurities (NMT 2%) ([4]; 0 weeks): 0.30 % (w/w) | Doxorubicin (NMT 1%) ([4]; 1 week, hydrochloride): 0.28 % (w/w) | Doxorubicinone (Aglycone) (NMT 1%) ([4]; 1 week, hydrochloride): 0.39 % (w/w) | Total Impurities (NMT 2%) ([4]; 1 week, hydrochloride): 0.80 % (w/w) | Unknown impurity RRT 1.7 (NMT 0.15%) ([4]; 1 week, hydrochloride): 0.08 % (w/w) | Doxorubicin (NMT 1%) ([4]; 2 weeks): 0.32 % (w/w) | Doxorubicinone (Aglycone) (NMT 1%) ([4]; 2 weeks, hydrochloride): 0.40 % (w/w) | Total Impurities (NMT 2%) ([4]; 2 weeks, hydrochloride): 0.90 % (w/w) | Unknown impurity RRT 1.2 (NMT 0.15%) ([4]; 2 weeks, hydrochloride): 0.07 % (w/w) | Unknown impurity RRT 1.6 (NMT 0.15%) ([4]; 2 weeks, hydrochloride): 0.05 % (w/w) | Unknown impurity RRT 1.7 (NMT 0.15%) ([4]; 2 weeks, hydrochloride): 0.09 % (w/w) | Doxorubicin (NMT 1%) ([4]; 3 weeks, hydrochloride): 0.32 % (w/w) | Doxorubicinone (Aglycone) (NMT 1%) ([4]; 3 weeks, hydrochloride): 0.46 % (w/w) | Total Impurities (NMT 2%) ([4]; 3 weeks, hydrochloride): 1.10 % (w/w) | Unknown impurity RRT 1.2 (NMT 0.15%) ([4]; 3 weeks, hydrochloride): 0.08 % (w/w) | Unknown impurity RRT 1.6 (NMT 0.15%) ([4]; 3 weeks, hydrochloride): 0.12 % (w/w) | Unknown impurity RRT 1.7 (NMT 0.15%) ([4]; 3 weeks, hydrochloride): 0.13 % (w/w) | Doxorubicin (NMT 1%) ([4]; 4 weeks): 0.33 % (w/w) | Doxorubicinone (Aglycone) (NMT 1%) ([4]; 4 weeks, hydrochloride): 0.49 % (w/w) | Total Impurities (NMT 2%) ([4]; 4 weeks, hydrochloride): 1.3* % (w/w) | Total amount of unknown impurities ([4]; 4 weeks, hydrochloride): 0.48 % (w/w) | Unknown impurity RRT 1.1 (NMT 0.15%) ([4]; 4 weeks, hydrochloride): 0.06 % (w/w) | Unknown impurity RRT 1.2 (NMT 0.15%) ([4]; 4 weeks, hydrochloride): 0.11 % (w/w) | Unknown impurity RRT 1.6 (NMT 0.15%) ([4]; 4 weeks, hydrochloride): 0.15 % (w/w) | Unknown impurity RRT 1.7 (NMT 0.15%) ([4]; 4 weeks, hydrochloride): 0.15 % (w/w) | Degradation under stress conditions compared with M1 and M2, in words ([4]; one month): less pronounced degradation
